Source: patent US8324014B2, “Process for depositing boron compounds by CVD or PVD” (L'Air Liquide Societe Anonyme pour l'Etude et …, priority 2007, dated 2012)
Where two headings read alike, the source gives them in different places.

Columns and labels:
[1] = thermogravimetric analysis; type: physicochemical; conditions: ramp 20 to 400° C., 10° C./min, 30 mL/min helium
Procedure: A thermogravimetric analysis of 1,3,5-trimethylborazine was carried out over a temperature ramp of 20 to 400° C., with a rise of 10° C./min under 30 mL/min of helium.
Curve 2 from FIG. 2A plotted as a lighter line represents the loss in mass of the sample as a function of the temperature. The final value of the residue level of 3.2% indicates a high purity and good thermal stability of 1,3,5-trimethylborazine. This residue level is reached at 165° C.
Thermogravimetric analysis of tri-butylborane was carried out over a temperature ramp of 20 to 400° C., with a rise of 10° C./min under 30 mL/min of helium.
Curve 2 from FIG. 4 plotted as a lighter line represents the loss in mass of the sample as a function of the temperature.

[2] = vapour pressure measurement (Clausius-Clapeyron diagram); type: physicochemical
Procedure: The curve plotted in FIG. 2B represents the Clausius-Clapeyron diagram of the 1,3,5-trimethylborazine molecule, namely its vapour pressure measurement. 1,3,5-trimethylborazine has a vapour pressure of 40 Torr at 50° C. and greater than 200 Torr at 100° C., indicating a good volatility.

rat = conditions: cited from earlier work

Structure (SMILES) | final value of the residue level (thermal stability) [1] | vapour pressure ([2]; at 50° C.) | vapour pressure ([2]; at 100° C.) | toxicity qualification with reference to LD50 oral, rat (rat; in vivo, po) | toxicity qualification with reference to LD50 oral, rat (rat; oral)
CN1BN(C)BN(C)B1 [1,3,5-trimethylborazine] | 3.2% | 40 Torr | greater than 200 Torr | slightly toxic to almost non-toxic | 
B.B [diborane] |  |  |  |  | lethal
CCCCB(CCCC)CCCC [tri-n-butylborane] | 0.6% |  |  |  | 
CB(C)C [trimethylborane] |  |  |  |  | very toxic
